{
  "source": "paper PMC7286914",
  "about": "(2020)",
  "experiment_in_all_cases": "Cy3/quencher fluorescence titration, Langmuir fit",
  "key": {"[1]": {"tested_on": "TAT60 (DNA, aptamer) CACCTGGGGGAGTATTGCGGAGGAAGGTTTTGAGGGAAAGAATCATTTCTTTCCCTATGTTTCCCTTTCTTTTTAACCAGGTG", "conditions": "6 mM MgCl2; Na+ (concentration not stated); 10 mM Tris, 10 mM Bis-Tris, 10 mM sodium acetate, pH 7, room temperature; apparent, intramolecular displacement strand competes"}, "[2]": {"tested_on": "A-C Mismatch (DNA, aptamer) CACCTGGGGGAGTATTGCGGAGGAAGGTTTTTTTTTTTTTACCCCCAAGTG", "conditions": "6 mM MgCl2; Na+ (concentration not stated); 10 mM Tris, 10 mM Bis-Tris, 10 mM sodium acetate, pH 8, room temperature; apparent, intramolecular displacement strand competes"}, "[3]": {"tested_on": "A-G Mismatch (DNA, aptamer) CACCTGGGGGAGTATTGCGGAGGAAGGTTTTTTTTTTTTTTTCCCAAGGTG", "conditions": "6 mM MgCl2; Na+ (concentration not stated); 10 mM Tris, 10 mM Bis-Tris, 10 mM sodium acetate, pH 7.5, room temperature; apparent, intramolecular displacement strand competes"}, "[4]": {"tested_on": "Combined TAT80/A-C Mismatch (DNA, aptamer) CACCTGGGGGAGTATTGCGGAGGAAGGTTTTGAAGAAAAAGATTGCTCTTTTTCTTATTGTTTCTTTTTCTATTTACCCCCAAGTG", "conditions": "6 mM MgCl2; Na+ (concentration not stated); 10 mM Tris, 10 mM Bis-Tris, 10 mM sodium acetate, pH 6.5, room temperature; apparent, intramolecular displacement strand competes"}},
  "data": [
    {"smiles": "Nc1ncnc2c1ncn2[C@@H]1O[C@H](COP(=O)(O)OP(=O)(O)OP(=O)(O)O)[C@@H](O)[C@H]1O", "values": [
      {"measurement": "KDeff", "setting": "[1]", "value": "3.9 (95% CI 3.2–4.8) mM"},
      {"measurement": "KDeff", "setting": "[2]", "value": "0.30 (95% CI 0.25–0.36) mM"},
      {"measurement": "KDeff", "setting": "[3]", "value": "0.32 (95% CI 0.27–0.37) mM"},
      {"measurement": "KDeff", "setting": "[4]", "value": "32 (95% CI 27–39) μM"}
    ]}
  ]
}
